# According to patent US7902226B2, “Dehalogeno-compounds” (Daiichi Pharmaceutical Co., Ltd., priority 2000, dated 2011):
# Counter-ions that a name gives are not always drawn.
# How the values were obtained:
# Pr. vulgalis, 08601 = experiment: Antibacterial activity (MIC), standard method of the Japan Society of Chemotherapy; format: cell-based
# Protocol: (§1) Antibacterial activities of the compounds of this invention were measured in accordance to the standard method designated by the Japan Society of Chemotherapy, with the results shown as MIC values (microgram/ml) units in the following table. For comparison with the MIC values of the compounds of this invention, MIC values of levofloxacin (LVFX), ciprofloxacin (CPFX) and 7-[3-(R)-(1-aminocyclopropyl)pyrrolidin-1-yl]-6-fluoro-1-[2-(S)-fluoro-1-(R)-cyclopropyl]-8-methyl-1,4-dihydro-4-oxoquinoline-3-carboxylic acid (Reference drug 1), which is described in PCT/JP96/00208, are also shown in the table.
# Ps. aeruginosa, 32121 = experiment: as above; format: cell-based; details: Pseudomonas aeruginosa
# Protocol: as §1
# Str. pyogenes, G-36 = experiment: as above; format: cell-based; details: Streptococcus pyogenes, G36
# Protocol: as §1
# E. coli, NIHJ = experiment: as above; format: cell-based; details: Escherichia coli
# Protocol: as §1
# [1] = tested on: Ps. maltophilia, IID-1275; experiment: as above; format: cell-based; details: Stenotrophomonas maltophilia, IID1275
# Protocol: as §1
# S. aureus, 209P = experiment: as above; format: cell-based; details: Staphylococcus aureus
# Protocol: as §1
# [2] = tested on: Str. faecalis, ATCC 19433; experiment: as above; format: cell-based; details: Enterococcus faecalis, ATCC19433
# Protocol: as §1
# K. pneumoniae, Type 1 = experiment: as above; format: cell-based; details: Klebsiella pneumoniae, TYPE1
# Protocol: as §1
# S. aureus, 870307 = experiment: as above; format: cell-based; details: Staphylococcus aureus
# Protocol: as §1
# Ser. marcescens, 10100 = experiment: as above; format: cell-based; details: Serratia marcescens
# Protocol: as §1
# S. epidermidis, 56500 = experiment: as above; format: cell-based; details: Staphylococcus epidermidis
# Protocol: as §1
# Str. pneumoniae J24 = experiment: as above; format: cell-based; details: Streptococcus pneumoniae
# Protocol: as §1
# Ps. aeruginosa, 32104 = experiment: as above; format: cell-based; details: Pseudomonas aeruginosa
# Protocol: as §1
# S. flexneri, 2A 5503 = experiment: as above; format: cell-based; details: Shigella flexneri, 2A5503
# Protocol: as §1
structure (smiles),measurement,setting,value
"Cc1c(N2CC[C@@H](C3(N)CC3)C2)ccc2c(=O)c(C(=O)O)cn([C@@H]3C[C@@H]3F)c12 (as salt: HCl) (hydrate or solvate) [Example 1, 7-[3-(R)-(1-aminocyclopropyl)pyrrolidin-1-yl]-1-[2-(S)-fluoro-1-(R)-cyclopropyl]-1,4-dihydro-8-methyl-4-oxoquinoline-3-carboxylic acid]",melting point,,228 to 230 °C
"C[C@H]1COc2c(N3CC[C@@H](C4(N)CC4)C3)ccc3c(=O)c(C(=O)O)cn1c23 (as salt: salt) [Example 9, 10-[3-(R)-(1-aminocyclopropyl)pyrrolidin-1-yl]-2,3-dihydro-3-(S)-methyl-7-oxo-7H-pyrido[1,2,3-de][1,4]benzoxazine-6-carboxylic acid]",melting point,,249 to 252 °C (dec.)
"COc1c(N2CC[C@@H](C3(N)CCC3)C2)ccc2c(=O)c(C(=O)O)cn([C@@H]3C[C@@H]3F)c12 (hydrate or solvate) [Example 19, 7-[3-(R)-(1-aminocyclobutyl)pyrrolidin-1-yl]-1-[2-(S)-fluoro-1-(R)-cyclopropyl]-8-methoxy-1,4-dihydro-4-oxoquinoline-3-carboxylic acid]",melting point,,174 °C
"O=C(O)c1cn(C2CC2)c2cc(N3CCNCC3)c(F)cc2c1=O [CPFX, ciprofloxacin, reference compound]",MIC,"Pr. vulgalis, 08601",≤ 0.003 µg/mL
same,MIC,"Ps. aeruginosa, 32121",0.025 µg/mL
same,MIC,"Str. pyogenes, G-36",1.56 µg/mL
same,MIC,"E. coli, NIHJ",≤ 0.003 µg/mL
same,MIC,[1],0.78 µg/mL
same,MIC,"S. aureus, 209P",0.1 µg/mL
same,MIC,[2],0.78 µg/mL
same,MIC,"K. pneumoniae, Type 1",0.025 µg/mL
same,MIC,"S. aureus, 870307",3.13 µg/mL
same,MIC,"Ser. marcescens, 10100",0.025 µg/mL
same,MIC,"S. epidermidis, 56500",0.2 µg/mL
same,MIC,Str. pneumoniae J24,0.1 µg/mL
same,MIC,"Ps. aeruginosa, 32104",0.005 µg/mL
same,MIC,"S. flexneri, 2A 5503",0.006 µg/mL
"COc1c(N2CC[C@@H](C3(N)CC3)C2)ccc2c(=O)c(C(=O)O)cn([C@@H]3C[C@@H]3F)c12 [Example 2, 7-[3-(R)-(1-aminocyclopropyl)pyrrolidin-1-yl]-1-[2-(S)-fluoro-1-(R)-cyclopropyl]-1,4-dihydro-8-methoxy-4-oxoquinoline-3-carboxylic acid]",MIC,"Pr. vulgalis, 08601",0.012 µg/mL
same,MIC,"Ps. aeruginosa, 32121",0.05 µg/mL
same,MIC,"Str. pyogenes, G-36",0.006 µg/mL
same,MIC,"E. coli, NIHJ",≤ 0.003 µg/mL
same,MIC,[1],0.2 µg/mL
same,MIC,"S. aureus, 209P",≤ 0.003 µg/mL
same,MIC,[2],0.025 µg/mL
same,MIC,"K. pneumoniae, Type 1",0.05 µg/mL
same,MIC,"S. aureus, 870307",0.05 µg/mL
same,MIC,"Ser. marcescens, 10100",0.1 µg/mL
same,MIC,"S. epidermidis, 56500",0.012 µg/mL
same,MIC,Str. pneumoniae J24,0.006 µg/mL
same,MIC,"Ps. aeruginosa, 32104",0.2 µg/mL
same,MIC,"S. flexneri, 2A 5503",0.012 µg/mL
"Cc1c(N2CC[C@@H](C3(N)CC3)C2)ccc2c(=O)c(C(=O)O)cn(C3CC3)c12 [Example 3, 7-[3-(R)-(1-aminocyclopropyl)pyrrolidin-1-yl]-1-cyclopropyl-1,4-dihydro-8-methyl-4-oxoquinoline-3-carboxylic acid]",melting point,,230 to 233 °C
same,MIC,"Pr. vulgalis, 08601",≤ 0.003 µg/mL
same,MIC,"Ps. aeruginosa, 32121",0.025 µg/mL
same,MIC,"Str. pyogenes, G-36",0.003 µg/mL
same,MIC,"E. coli, NIHJ",≤ 0.003 µg/mL
same,MIC,[1],0.05 µg/mL
same,MIC,"S. aureus, 209P",≤ 0.003 µg/mL
same,MIC,[2],0.012 µg/mL
same,MIC,"K. pneumoniae, Type 1",0.012 µg/mL
same,MIC,"S. aureus, 870307",0.025 µg/mL
same,MIC,"Ser. marcescens, 10100",0.025 µg/mL
same,MIC,"S. epidermidis, 56500",0.003 µg/mL
same,MIC,Str. pneumoniae J24,≤ 0.003 µg/mL
same,MIC,"Ps. aeruginosa, 32104",0.05 µg/mL
same,MIC,"S. flexneri, 2A 5503",≤ 0.003 µg/mL
"NC1([C@@H]2CCN(c3ccc4c(=O)c(C(=O)O)cn([C@@H]5C[C@@H]5F)c4n3)C2)CC1 [Example 4, 7-[3-(R)-(1-aminocyclopropyl)pyrrolidin-1-yl]-1-[2-(S)-fluoro-1-(R)-cyclopropyl]-1,4-dihydro-4-oxo-1,8-naphthylidine-3-carboxylic acid]",melting point,,216 to 218 °C
"NC1([C@@H]2CCN(c3ccc4c(=O)c(C(=O)O)cn([C@@H]5C[C@@H]5F)c4c3)C2)CC1 [Example 5, 7-[3-(R)-(1-aminocyclopropyl)pyrrolidin-1-yl]-1-[2-(S)-fluoro-1-(R)-cyclopropyl]-1,4-dihydro-4-oxoquinoline-3-carboxylic acid]",melting point,,251 to 253 °C
"NC1([C@@H]2CCN(c3ccc4c(=O)c(C(=O)O)cn(C5CC5)c4c3OC(F)F)C2)CC1 [Example 6, 7-[3-(R)-(1-aminocyclopropyl)pyrrolidin-1-yl]-1-cyclopropyl-8-difluoromethoxy-1,4-dihydro-4-oxoquinoline-3-carboxylic acid]",melting point,,206 to 207.5 °C
"Cc1c(N2CC[C@@H](C3(N)CC3)C2)cc(N)c2c(=O)c(C(=O)O)cn([C@@H]3C[C@@H]3F)c12 [Example 7, 5-amino-7-[3-(R)-(1-aminocyclopropyl)pyrrolidin-1-yl]-1-[2-(S)-fluoro-1-(R)-cyclopropyl]-1,4-dihydro-8-methyl-4-oxoquinoline-3-carboxylic acid]",melting point,,240 to 242 °C (dec.)
"COc1c(N2CC[C@@H](C3(N)CC3)C2)cc(N)c2c(=O)c(C(=O)O)cn([C@@H]3C[C@@H]3F)c12 [Example 8, 5-amino-7-[3-(R)-(1-aminocyclopropyl)pyrrolidin-1-yl]-1-[2-(S)-fluoro-1-(R)-cyclopropyl]-1,4-dihydro-8-methoxy-4-oxoquinoline-3-carboxylic acid]",melting point,,172 to 178 °C (dec.)
"CNC1([C@@H]2CCN(c3ccc4c(=O)c(C(=O)O)cn([C@@H]5C[C@@H]5F)c4c3C)C2)CC1 [Example 10, 1-[2-(S)-fluoro-1-(R)-cyclopropyl]-8-methyl-7-[3-(R)-[1-(methylamino)cyclopropyl]pyrrolidin-1-yl]-1,4-dihydro-4-oxoquinoline-3-carboxylic acid]",melting point,,223 to 224 °C
same,MIC,"Pr. vulgalis, 08601",0.006 µg/mL
same,MIC,"Ps. aeruginosa, 32121",0.025 µg/mL
same,MIC,"Str. pyogenes, G-36",≤ 0.003 µg/mL
same,MIC,"E. coli, NIHJ",≤ 0.003 µg/mL
same,MIC,[1],0.1 µg/mL
same,MIC,"S. aureus, 209P",≤ 0.003 µg/mL
same,MIC,[2],0.012 µg/mL
same,MIC,"K. pneumoniae, Type 1",0.025 µg/mL
same,MIC,"S. aureus, 870307",0.025 µg/mL
same,MIC,"Ser. marcescens, 10100",0.05 µg/mL
same,MIC,"S. epidermidis, 56500",0.006 µg/mL
same,MIC,Str. pneumoniae J24,≤ 0.003 µg/mL
same,MIC,"Ps. aeruginosa, 32104",0.1 µg/mL
same,MIC,"S. flexneri, 2A 5503",0.006 µg/mL
"CNC1([C@@H]2CCN(c3ccc4c(=O)c(C(=O)O)cn5c4c3OC[C@@H]5C)C2)CC1 [Example 13, 2,3-dihydro-3-(S)-methyl-10-[3-(R)-[1-(methylamino)cyclopropyl]pyrrolidin-1-yl]-7-oxo-7H-pyrido[1,2,3-de][1,4]benzoxazine-6-carboxylic acid]",melting point,,227 to 229 °C
"NC1([C@@H]2CCN(c3ccc4c(=O)c(C(=O)O)cn([C@@H]5C[C@@H]5F)c4c3Cl)C2)CC1 [Example 16, 7-[3-(R)-(1-aminocyclopropyl)pyrrolidin-1-yl]-8-chloro-1-[2-(S)-fluoro-1-(R)-cyclopropyl]-1,4-dihydro-4-oxoquinoline-3-carboxylic acid]",melting point,,128 to 130 °C
"Cc1c(N2CC[C@@H](C3(N)CC3)C2)cc(O)c2c(=O)c(C(=O)O)cn([C@@H]3C[C@@H]3F)c12 [Example 17, 7-[3-(R)-(1-aminocyclopropyl)pyrrolidin-1-yl]-1-[2-(S)-fluoro-1-(R)-cyclopropyl]-5-hydroxy-8-methyl-1,4-dihydro-4-oxoquinoline-3-carboxylic acid]",melting point,,203 to 206 °C
"N#Cc1c(N2CC[C@@H](C3(N)CC3)C2)ccc2c(=O)c(C(=O)O)cn([C@@H]3C[C@@H]3F)c12 [Example 18, 7-[3-(R)-(1-aminocyclopropyl)pyrrolidin-1-yl]-8-cyano-1-[2-(S)-fluoro-1-(R)-cyclopropyl]-1,4-dihydro-4-oxoquinoline-3-carboxylic acid]",melting point,,138 to 140 °C
"C[C@H]1COc2c(N3CCN(C)CC3)c(F)cc3c(=O)c(C(=O)O)cn1c23 [LVFX, levofloxacin, reference compound]",MIC,"Pr. vulgalis, 08601",0.012 µg/mL
same,MIC,"Ps. aeruginosa, 32121",0.1 µg/mL
same,MIC,"Str. pyogenes, G-36",0.2 µg/mL
same,MIC,"E. coli, NIHJ",0.012 µg/mL
same,MIC,[1],0.39 µg/mL
same,MIC,"S. aureus, 209P",0.2 µg/mL
same,MIC,[2],0.78 µg/mL
same,MIC,"K. pneumoniae, Type 1",0.1 µg/mL
same,MIC,"S. aureus, 870307",> 6.25 µg/mL
same,MIC,"Ser. marcescens, 10100",0.1 µg/mL
same,MIC,"S. epidermidis, 56500",0.39 µg/mL
same,MIC,Str. pneumoniae J24,0.78 µg/mL
same,MIC,"Ps. aeruginosa, 32104",0.2 µg/mL
same,MIC,"S. flexneri, 2A 5503",0.025 µg/mL
